The source of these data is US20220135666A1, “TREATMENT OF A DISEASE OF THE GASTROINTESTINAL TRACT WITH A S1P MODULATOR” (Progenity, Inc., priority 2017, published 2022).

A short description of data set [1]: Tissue, plasma and GI content pharmacokinetics of tacrolimus, oral vs intra-cecal ingestible device (Example 10). Details: species or system Yorkshire-Cross farm swine. The note with it: in vivo. As to the method:
The primary objective of this study was to compare the tissue, plasma, rectal sample, and GI content pharmacokinetics of tacrolimus through oral versus intra-cecal ingestible device delivery in normal Yorkshire-Cross farm swine.
(§1) No further randomization procedure was employed.
Animals in Group 1 received an ingestible device containing 0.8 mL of vehicle solution (80% alcohol, 20% HCO-60). Animals in Group 2 received orally […] liquid formulation of tacrolimus at 4 mg/0.8 mL per animal (Prograf: 5 mg/mL). Animals in Group 3 received intracecally an ingestible device containing tacrolimus at 1 mg in 0.8 mL per ingestible device. […]
Approximately 200˜400 mg of rectal content were collected, if available, with a fecal swab (Copan Diagnostics Nylon Flocked Dry Swabs, 502CS01). The fecal swab was pre-weighed and weighed after collection in the collection tube (Sterile Tube and Cap No Media, PFPM913S), and the sample weight was recorded. […]
For tissue necropsy, small intestine fluid and cecal fluid were collected separately from all the animals into two separate square plastic bottles, and stored at −20° C. The length and diameter of the cecum and the colon was measured from one animal in each group and recorded for reference. […] All samples were weighed, and the tissue sample weights were recorded. […]

Data set [2] is described as follows: Pharmacokinetic study of oral vs intra-cecal administration of tacrolimus (Example 13). Set-up: species or system Yorkshire-Cross farm swine. The note with it: female, Yorkshire-Cross, in vivo, 0.09 mg/kg.
From the text: as §1

SMILES strings stand for the structures.

Regarding `C=CC[C@@H]1/C=C(\C)C[C@H](C)C[C@H](OC)[C@H]2O[C@@](O)(C(=O)C(=O)N3CCCC[C@H]3C(=O)O[C@H](/C(C)=C/[C@@H]3CC[C@@H](O)[C@H](OC)C3)[C@H](C)[C@@H](O)CC1=O)[C@H](C)C[C@@H]2OC` [tacrolimus], the “level detected in tissue” value in data set [1] was “No measurable level”. In addition, in data set [2] (pig, 12 h), the “Ratio Tissue (mean) (ng/g)/AUG(0-12 hr) (ng · hr/mL)” value amounted to 0 and the “Trough (12 hr)” value is on record as 0.568 ng/mL. For the same compound, in data set [2] (swine), the Kp at 12 h was 0. Also, the “Ratio Tissue (mean) (ng/g)/Tough(12 hr)(ng/mL)” value in data set [2] (swine, 12 h) was 0.
